Patent US9737525B2, “Small molecule activators of NRF2 pathway” (The General Hospital Corporation, priority 2013, dated 2017)

Key:
[1] = system: Drosophila expressing mutant Htt exon 1; experiment: Drosophila model of HD, photoreceptor neuron (rhabdomere) survival; format: in vivo; details: 10 μM, treated vs. untreated flies, day 7 after eclosion
Description: Compound treatment of Drosophila HD model and efficacy analysis of MIND4 effects on photoreceptor neurons was performed as described (Steffan et al., 2001; Pallos et al., 2008). Drosophila models have been important in the genetic identification of pathological and neuroprotective mechanisms as well as for testing therapeutic candidates in HD (Marsh et al., 2003). In wild type flies, seven rhabdomeres (photoreceptor neurons) are visible in the adult eye, whereas chronic expression of mHTTex1 causes progressive degeneration of these neurons, detected as a reduction of rhabdomere number. Rhabdomeres were counted on day 7 after eclosion in animals treated with varying doses of MIND4. The indicated numbers of flies were scored for each condition (n) with the number of ommatidia scored indicated in parentheses. Trial 1: DMSO=11(449); MIND4 1 μM=3(112); MIND4 10 μM=9(337); […]=9(364). […]
MIND4 was tested for its potential efficacy by monitoring the degeneration of photoreceptor neurons in the eyes of Drosophila expressing expanded repeat HTT exon 1 protein in all neurons beginning during embryogenesis (Steffan et al., 2001). […] Chronic expression of mutant HTT causes progressive degeneration of these neurons, detected as a reduction of rhabdomeres number. Rhabdomeres were counted on day 7 after eclosion in animals treated with varying doses of MIND4. […]

[2] = Detection of MIND4 in mouse brain after escalated i.p. dosing; format: in vivo; details: brain cortex, intraperitoneal, i.p. daily, escalated 50 to 275 mg/kg, 2 hours after last dose, HPLC, read-out: Concentration in wild type mouse cortices
Description: To evaluate whether MIND4 would also confer an anti-inflammatory effect in vivo, pilot studies were performed to assess brain permeability of MIND4 in mice (FIG. 7A-B). MIND4 was solubilized at 5 mg/ml in 7.5% Cremophor EL (BASF)/2.375% Ethanol in PBS, Wild type mice (N=3) were subjected to MIND4 treatment at escalated dosing from 50 mg/kg up to a final dose of 275 mg/kg administered daily by intraperitoneal (i.p.) injection. […] Mice were sacrificed 2 hours following the last drug administration and isolated cortical samples were subjected to HPLC analysis.
Specifically, frozen mouse cortical tissues were extracted in ice cold methanol containing 0.4% acetic acid (approximately 1:6 ratios), probe sonicated for 5 sec and centrifuged at 22000×g for 20 min at 4 C. The supernatant was dried under centrifugation and vacuum and reconstituted with running buffer. Reverse phase-HPLC/ECA separation was accomplished on shisedo MG240 C18 HPLC column (4.6×250 mm, 3μ particle size), flow rate 1 ml/min, using 50% methanol in 0.1M sodium phosphate buffer pH 3, isocratic elution was performed for 20 min using 4 channel electrochemical array. Levels of MIND4 in the brain samples were determined using integrated peak areas and the standard curves

primary human monocytes = experiment: LDH cell death assay in primary human monocytes; format: cell-based; details: any concentration
Description: Blood samples were obtained from control subjects and genetically-diagnosed, symptomatic HD patients. Patients were classed as having early or moderate-stage disease using the total functional capacity (TFC) scale (13-7, early; 6-3, moderate) [Marder, 2000]. Subjects with inflammatory or infective conditions were excluded. Cells were isolated from whole blood, as previously described [Björkqvist, 2008]. In brief, 50 ml whole blood was collected in heparin (CP Pharmaceuticals) and leukocytes were isolated by density gradient centrifugation. Monocytes were sorted via magnetic cell separation columns using anti-CD14 microbeads (Miltenyi Biotec). Monocytes were seeded at 1×10^5 cells per well in 96-well PRIMARIA™ tissue culture plates (BD Falcon) with R10 media (RPMI culture medium supplemented with 10% FCS, 2 mM L-glutamine, 50 U/ml penicillin and […] streptomycin (Invitrogen)). […] Supernatants were analyzed using the human pro-inflammatory II (4-plex) MSD assay measuring IL-1b, IL-6, IL-8 and TNFα. […] Cell death was measured using a LDH assay (CytoTox-Fluor™ Cytotoxicity Assay from Promega). Normalized cytokine levels have been analyzed on the logarithmic scale due to their skewed distribution. […] Contrasts of interest were then calculated using linear combinations of parameter estimates.

Compound: O=[N+]([O-])c1ccc(Sc2nnc(COc3ccccc3)n2-c2ccccc2)c2ncccc12 [MIND4, 5-nitro-8-{[5-(phenoxymethyl)-4-phenyl-4H-1,2,4-triazol-3-yl]thio}quinoline]
- Relative rescue of photoreceptor neurons, Trial 1 [1]: 22.6%
- Relative rescue of photoreceptor neurons, Trial 2 [1]: 20.7%
- concentration at 2 h [2]: ~500 nM

Compound: O=[N+]([O-])c1ccc(Sc2nnc(COc3ccccc3)n2-c2ccccc2)nc1 [MIND4-17]
- Toxic effect on viability of primary human monocytes (primary human monocytes): Neither vehicle (DMSO) or MIND4-17 had a toxic effect
